The test system of one series is HepG2. Kind of series: Cytotoxicity against human HepG2 cells assessed as reduction in cell viability incubated for 72 hrs by cell titer glo assay. It is filed as cell-based. The note with it: HepG2, 72 h. For orientation: In ATP-based viability assays light output follows the ATP content of the culture.
A short description of series [1]: Selectivity index, ratio of IC50 for cytotoxicity against human HEK293T cells assessed to IC50 for antiplasmodial activity against synchronized ring stage Plasmodium falciparum 3D7 infected in human erythrocytes. The class given is toxicity, cell-based. As to conditions: read-out: Ratio IC50.
The subject of another series is HEK-293T. Kind of series: Cytotoxicity against human HEK293T cells assessed as reduction in cell viability incubated for 72 hrs by cell titer glo assay. It is filed as cell-based.
Series [2] in a line: Selectivity index, ratio of IC50 for cytotoxicity against human HepG2 cells assessed to IC50 for antiplasmodial activity against synchronized ring stage Plasmodium falciparum 3D7 infected in human erythrocytes. It is filed as toxicity, cell-based. The note with it: read-out: Ratio IC50.
Series [3] relates to Plasmodium falciparum. Kind of series: Antiplasmodial activity against synchronized ring stage Plasmodium falciparum 3D7 infected in human erythrocytes assessed as reduction in parasite growth incubated for 72 hrs by Giemsa staining based light microscopic method. It is filed as functional, organism-based. The note with it: 3D7, Erythrocyte.
Series [4] deals with Plasmodium falciparum. Kind of series: Antiplasmodial activity against synchronized ring stage Plasmodium falciparum Dd2 infected in human erythrocytes assessed as reduction in parasite growth incubated for 72 hrs by Giemsa staining based light microscopic method. It is filed as functional, organism-based. As to conditions: Dd2, Erythrocyte.

As for `O=C(NO)c1cnc(N2CCC3(CCN(Cc4cnc5ccccn45)C3)CC2)nc1`, the IC50 with HepG2 was determined as 1960 nM; with HEK-293T it was 3530 nM; in the series on Plasmodium falciparum [3], 14.4 nM; in the series on Plasmodium falciparum [4] it was 18.5 nM. For the same molecule, the selectivity ratio in series [1] came to 245; in series [2], 136.
Take `O=C(NO)c1cnc(N2CCC3(CCN(Cc4csc5ccccc45)C3)CC2)nc1`: the IC50 worked out at 79 nM in the series with HepG2, 109 nM in the series with HEK-293T, 4.3 nM in the series with Plasmodium falciparum [3] and 3.6 nM with Plasmodium falciparum [4]. The selectivity ratio in series [1] was found to be 25; in series [2] it was 18.
`O=C(NO)c1cnc(N2CCC3(CCN(Cc4cnc5ccccc5c4)C3)CC2)nc1`: the IC50 in the series with HepG2 was 564 nM; with HEK-293T, 145 nM; in the series with Plasmodium falciparum [3] it was 5.54 nM; with Plasmodium falciparum [4], 2.7 nM. In addition, the selectivity ratio in series [1] turned out to be 26; in series [2] it was 102.
In the case of `O=C(NO)c1cnc(N2CCC3(CCN(Cc4coc5ccccc45)C3)CC2)nc1`, the IC50 was determined as 886 nM in the series on HepG2, 576 nM in the series with HEK-293T, 13.6 nM in the series with Plasmodium falciparum [3] and 10.9 nM with Plasmodium falciparum [4]. Also, the selectivity ratio in series [1] came to 42; in series [2], 65.
For `O=C(NO)c1cnc(N2CCC3(CCN(Cc4ccoc4)C3)CC2)nc1`, the IC50 in the series with HepG2 was found to be 1050 nM; with HEK-293T, 1630 nM; in the series on Plasmodium falciparum [3] it was 35.3 nM; with Plasmodium falciparum [4], 26.3 nM. In addition, the selectivity ratio in series [1] is 46; in series [2], 30.
As to `O=C(NO)c1cnc(N2CCC3(CCN(Cc4ccccn4)C3)CC2)nc1`, the IC50 with HepG2 was determined as 1300 nM; in the series on HEK-293T, 1720 nM; in the series with Plasmodium falciparum [3], 16.2 nM; in the series on Plasmodium falciparum [4], 23.3 nM. Also, the selectivity ratio worked out at 106 in series [1] and 80 in series [2].
Consider `O=C(NO)c1cnc(N2CCC3(CCN(Cc4ccncc4)C3)CC2)nc1`, for which the IC50 was found to be 3250 nM with HepG2, 3470 nM with HEK-293T, 16.9 nM with Plasmodium falciparum [3] and 22.8 nM in the series with Plasmodium falciparum [4]. The selectivity ratio in series [1] was 206; in series [2], 193.
Turning to `O=C(NO)c1cnc(N2CCC3(CCN(Cc4cncc5ccccc45)C3)CC2)nc1`, the IC50 with HepG2 stood at 102 nM; with HEK-293T, 423 nM; with Plasmodium falciparum [3], 11.5 nM; with Plasmodium falciparum [4], 7.9 nM. Moreover, the selectivity ratio was 37 in series [1] and 9 in series [2].
Consider `O=C(NO)c1cnc(N2CCC3(CCN(Cc4ccc5ccccc5n4)C3)CC2)nc1`, for which the IC50 in the series on HepG2 worked out at 320 nM; with HEK-293T, 393 nM; with Plasmodium falciparum [3], 6.9 nM; in the series on Plasmodium falciparum [4] it was 2.98 nM. The selectivity ratio came out at 57 in series [1] and 47 in series [2].
On to `O=C(NO)c1cnc(N2CCC3(CCN(Cc4ccsc4)C3)CC2)nc1`, for which the IC50 was found to be 1060 nM in the series with HepG2, 831 nM in the series with HEK-293T, 23.1 nM with Plasmodium falciparum [3] and 11.8 nM in the series with Plasmodium falciparum [4]. Besides, the selectivity ratio in series [1] is 36; in series [2], 46.
On to `O=C(NO)c1cnc(N2CCC3(CCN(Cc4cccc5ccccc45)C3)CC2)nc1`, for which the IC50 in the series with HepG2 was found to be 91 nM; in the series with HEK-293T, 154 nM; in the series with Plasmodium falciparum [3] it was 4.4 nM; in the series on Plasmodium falciparum [4], 6.7 nM. Also, the selectivity ratio worked out at 35 in series [1] and 21 in series [2].
`O=C(NO)c1cnc(N2CCC3(CCN(Cc4ccccc4)C3)CC2)nc1`: the IC50 in the series with HepG2 was determined as 217 nM; in the series on HEK-293T, 375 nM; in the series with Plasmodium falciparum [3], 6.8 nM; in the series with Plasmodium falciparum [4] it was 7.6 nM. The selectivity ratio in series [1] was 55; in series [2], 32.
Turning to `O=C(NO)c1cnc(N2CCC3(CCN(Cc4ccc5ccccc5c4)C3)CC2)nc1`, the IC50 was found to be 228 nM in the series with HepG2, 484 nM in the series with HEK-293T, 4.1 nM in the series on Plasmodium falciparum [3] and 3.16 nM in the series on Plasmodium falciparum [4]. For the same molecule, the selectivity ratio in series [1] was determined as 118; in series [2] it was 56.
Regarding `O=C(NO)c1cnc(N2CCC3(CCN(CC4CCCCC4)C3)CC2)nc1`, the IC50 with HepG2 worked out at 1630 nM; with HEK-293T it was 1250 nM; in the series on Plasmodium falciparum [3], 10.2 nM; in the series on Plasmodium falciparum [4] it was 14.7 nM. Also, the selectivity ratio in series [1] came to 122; in series [2] it was 160.
Regarding `O=C(NO)c1cnc(N2CCC3(CCN(Cc4cccc5ncccc45)C3)CC2)nc1`, the IC50 with HepG2 was found to be 740 nM; in the series with HEK-293T, 559 nM; with Plasmodium falciparum [3], 11.6 nM; with Plasmodium falciparum [4], 9.2 nM. Further, the selectivity ratio was found to be 48 in series [1] and 64 in series [2].
As to `O=C(NO)c1cnc(N2CCC3(CCN(Cc4cccc5ccncc45)C3)CC2)nc1`, the IC50 with HepG2 turned out to be 415 nM; with HEK-293T it was 207 nM; in the series on Plasmodium falciparum [3] it was 8.1 nM; in the series with Plasmodium falciparum [4] it was 6.9 nM. Moreover, the figures for the selectivity ratio in series [1] and in series [2] were 26 and 51, respectively.
With `O=C(NO)c1cnc(N2CCC3(CCN(Cc4cc5ccccc5c5ccccc45)C3)CC2)nc1`, the IC50 with HepG2 amounted to 204 nM; with HEK-293T, 482 nM; with Plasmodium falciparum [3], 10.1 nM; in the series with Plasmodium falciparum [4], 8.5 nM. The figures for the selectivity ratio in series [1] and in series [2] were 48 and 20, respectively.
As to `O=C(NO)c1cnc(N2CCC3(CCN(CC4CCCC4)C3)CC2)nc1`, the IC50 in the series with HepG2 was determined as 630 nM; in the series with HEK-293T it was 1220 nM; in the series on Plasmodium falciparum [3], 13.6 nM; in the series on Plasmodium falciparum [4] it was 12.7 nM. Also, the selectivity ratio in series [1] stood at 90; in series [2], 46.
As for `O=C(NO)c1cnc(N2CCC3(CCN(Cc4ccnc5ccccc45)C3)CC2)nc1`, the IC50 in the series with HepG2 was found to be 482 nM; with HEK-293T it was 351 nM; in the series with Plasmodium falciparum [3], 14.6 nM; with Plasmodium falciparum [4], 14.7 nM. Also, the selectivity ratio is 24 in series [1] and 33 in series [2].
Consider `O=C(NO)c1cnc(N2CCC3(CCN(Cc4c5ccccc5cc5ccccc45)C3)CC2)nc1`, for which the IC50 was 165 nM in the series on HepG2, 390 nM in the series with HEK-293T, 22.3 nM with Plasmodium falciparum [3] and 16.5 nM in the series on Plasmodium falciparum [4]. Also, the selectivity ratio in series [1] was found to be 18; in series [2], 7.
Turning to `O=C(NO)c1cnc(N2CCC3(CCN(Cc4cccc5cccnc45)C3)CC2)nc1`, the IC50 amounted to 221 nM in the series with HepG2, 351 nM in the series with HEK-293T, 8 nM in the series with Plasmodium falciparum [3] and 3.4 nM in the series with Plasmodium falciparum [4]. In addition, the selectivity ratio in series [1] came out at 44; in series [2], 28.
On to `O=C(NO)c1cnc(N2CCC3(CCN(Cc4ccc(-c5ccccc5)cc4)C3)CC2)nc1`, for which the IC50 in the series on HepG2 turned out to be 641 nM; with HEK-293T, 732 nM; in the series with Plasmodium falciparum [3] it was 34.5 nM; in the series with Plasmodium falciparum [4], 46.1 nM. Besides, the selectivity ratio in series [1] is 21; in series [2], 19.
Consider `O=C(NO)c1cnc(N2CCC3(CCN(Cc4ccc5ccc6cccc7ccc4c5c67)C3)CC2)nc1`, for which the IC50 in the series with HepG2 is 1680 nM; with HEK-293T it was 1970 nM; in the series on Plasmodium falciparum [3], 26.4 nM; in the series on Plasmodium falciparum [4], 19.5 nM. For the same molecule, the selectivity ratio is 74 in series [1] and 64 in series [2].

The IC50 is the midpoint of a concentration-inhibition curve.

These data come from ChEMBL document CHEMBL4706683 (J Med Chem, 2021).
